4 molecules from patent US4980349A, “Sulphonamides derived from diarylmethanes, the processes for preparing them and pharmaceutical compositions containing them” (SANOFI, priority 1986, dated 1990) can be followed below.

Entries after “also recorded” stand apart in the source; their conditions may differ.

Data set [1] relates to foreign-body (sponge) granuloma in rats. In words: Experimental granuloma induced by foreign body, histological study. The following applies: for histological study of the granuloma (inflammatory connective / granulation tissue): second experiment, day 8, Table XIa. It counts as in vivo, Wistar rats. How it is done: (§1) This test consists in studying the subacute cellular phase which is developed in the 8 days which follow the implantation of a foreign body, a sponge of non-resorbable plastic, in the dorsal subcutaneous connective tissue in rats.
The granulomas formed are removed 8 days after the implantation; a histological study is carried out after fixing the tissue and staining sections with hematein/ eosin. The observation is more especially concerned with the cell population of the primary phase of the formation of the granulation tissue: the reticulohistocytic cells, lymphocytes and more especially the macrophages.
(§2) The animals used are Wistar rats weighing 120-140 g and of the same origin, maintained under the same conditions of housing throughout the treatment (8 days).
(§3) The compounds of the invention are administered orally, in a gum suspension, in the morning in a fasted state, using an oesophageal tube.
After 8 days of treatment, the rats are sacrificed by decapitation and the granulomas removed and prepared for the purpose of histological examination.
The experiment conditions are as follows:
The animals are distributed in batches of 10;
Each test product is administered at 2 doses, of 50 and 100 mg, respectively, to 2 batches of 10 animals;
Ketoprofen is used by way of reference product at the same 2 doses and under the same conditions; and
A batch of 10 control animals receives no treatment.
(§4) In this experiment, on the one hand a histological study of the granulomas is performed by sampling on day 8 (results recorded in Table XIa), and on the other hand a study of the weight of the granulomas was performed 10 days after the implantation (results recorded in Table XIb).

Another data set in a line: Oral LD50 in mice. The following applies: mouse, in vivo, female Swiss CF mice, 20 g, 14 days observation, read-out: approximate oral LD50. How it is done: The compounds were suspended in a 3% strength solution of gum arabic so as to supply, in a volume of 2 ml for the rats, the equivalent of 50, 100, 200, 400 and 800 mg/kg, and, in a volume of 1 ml for the mice, 100, 200, 400, 800 and 1,600 mg/kg and, for 1573 and 1579, 3,200 mg/kg.
Gavage was performed by means of a metal tube, on batches of 5 animals for each series.
The animals were observed daily for 14 days.

In data set [2] the test system is pain threshold of brewer's yeast inflamed rat hind foot. Description: Randall and Sellitto's test (analgesic activity). The following applies: second experiment, Table XIIa; for change in vivo at 25 mg/kg: 25 mg/kg oral; for change in vivo at 25 mg/kg / change in vivo at 50 mg/kg / change in vivo at 100 mg/kg: read-out: percentage increase in the mean pain threshold; for change in vivo at 50 mg/kg: 50 mg/kg oral; for change in vivo at 100 mg/kg: 100 mg/kg oral. The format is in vivo. In outline: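 Rats had 0.1 ml 20% brewer's yeast suspension injected under the hind-foot plantar aponeurosis; compounds dosed orally by stomach tube 1 h before yeast. Pain threshold was the pressure eliciting foot withdrawal, read at the 4–6 h plateau; result is % increase in mean threshold versus untreated controls, 10 rats per group.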

The subject of data set [3] is biosynthesis of leukotrienes B4 (LTB4), human polymorphonuclear leukocytes. In words: Biosynthesis of LTB4, isomers and oxidized metabolites in human polymorphonuclear leukocytes. The following applies: Leukocyte, second experiment, read-out: Percentage inhibition of LTB4 formation. It counts as cell-based. In outline: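 Human polymorphonuclear leukocytes (5×10^6, used within 6 h of blood draw) preincubated 10 min at 37° C. with test product at 40 μM in DMSO, stimulated with 10 μM ionophore A 23187 in PBS pH 7.4. LTB4, its isomers and oxidized metabolites quantified by HPLC at 269 nm against PGB2 internal standard, as % inhibition or % increase.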

Data set [4] deals with rat hind foot carragheenin-induced oedema. Description: Carragheenin-induced oedema test. As to conditions: 3 h, second experiment, Table Xa, read-out: percentage inhibition of the inflammation; for change in vivo at 25 mg/kg: 25 mg/kg oral; for change in vivo at 50 mg/kg: 50 mg/kg oral; for change in vivo at 100 mg/kg: 100 mg/kg oral. The format is in vivo.
For data set [5], the system named is rat hind foot kaolin-induced arthritis. In words: Kaolin-induced arthritis test, second experiment, chronic phase (weight of the foot at the 12th hour). It counts as in vivo. The following applies: po, 12 h, Table IXb; for change in vivo at 25 mg/kg / change in vivo at 50 mg/kg / change in vivo at 100 mg/kg: 12th hour, read-out: percentage significant decrease in the weight of the treated foot; for ED50: foot weight, read-out: 50% active dose. The procedure: (§5) The […] of 0.05 ml of a sterile 10% strength suspension of kaolin into the metatarsal flexor sheath of the hind foot of a rat initially induces an oedematous reaction. An inflammatory arthritis then forms.
(§6) The test products are administered orally (stomach tube) one hour before the injection of the kaolin.
(§7) In a second experiment, a more elaborate study was performed in order to ascertain the effect of the products, on the one hand on the acute phase of the inflammatory reaction (measured by the volume of the foot at the 8th hour), and on the other hand on the chronic phase (activity measured by the weight of the foot at the 12th hour).
As in the previous experiment, ketoprofen was used as the comparative product: […]

Data set [6] relates to foreign-body (sponge) granuloma in rats. Description: Experimental granuloma induced by foreign body, weight of the granulomas. As to conditions: Rattus norvegicus, po, 240 h, 10 days after implantation, Table XIb, read-out: decrease in the weight of the granulomas. It counts as in vivo, Wistar rats. The procedure: as §1, §2, §3, §4
Data set [7] relates to rat hind foot kaolin-induced arthritis. In words: Kaolin-induced arthritis test, second experiment, acute phase (volume of the foot at the 8th hour). The following applies: po, 8 h, Table IXa; for change in vivo at 25 mg/kg / change in vivo at 50 mg/kg / change in vivo at 100 mg/kg: 8th hour, read-out: percentage significant decrease in the volume of the treated foot; for ED50: foot volume, read-out: 50% active dose. It counts as in vivo. How it is done:
as §5
The early oedematous reaction appears from the first hour, and reaches its maximum between the fourth hour and the sixth hour. This is the manifestation of interest. The assessment of the volume of the foot enables the action of substances on the oedematous reaction to be studied. The measurements are carried out using a Giono and Chevilard plethysmometer.
as §6, §7
As in the previous experiment, ketoprofen was used as the comparative product:
The results are expressed as a percentage significant decrease in the volume of the treated foot compared with the controls.

The subject of the next data set is prostacyclin synthetase. In words: PGI2 production in human glomeruli (renal preparation model). It counts as cell-based. As to conditions: arachidonic acid 5 ug/ml. The procedure: (§8) Human glomeruli synthesize both thromboxanes, via thromboxane synthetase, and prostaglandins, via prostacyclin synthetase. The experiment consists in stimulating glomerular cells with arachidonic acid (5 ug/ml) and in assaying radioimmunologically the amount of thromboxane B2 (TXB2) and prostacyclin (PGI2) produced in the presence of increasing concentrations of test products (10^-6 M to 5×10^-5 M).
(§9) As for the previous model, the results are expressed as IC50 in comparison with a control suspension.

The test system of data set [8] is biosynthesis of leukotrienes C4 (LTC4), human polymorphonuclear leukocytes. In words: LTC4 production in human polymorphonuclear leukocytes. It counts as cell-based. The following applies: Leukocyte, 0.25 h, ionophore A 23187 5 μM, 15 min, 37° C., read-out: IC50, inhibition of the production of LTC4. How it is done:
Human polymorphonuclear Leukocytes are stimulated by calcium ionophore A 23187 (Calbiochem, 5 μM), in the presence or absence of the test products.
After 15 minutes' incubation at 37° C., assay of the leukotrienes C4 (LTC4) is performed radioimmunologically.
The results are expressed as IC50, the concentration producing 50% inhibition of the production of LTC4, by comparison with a control suspension which has not been incubated in the presence of the test products.

Data set [9] concerns thromboxane synthetase. Description: TXB2 production in human platelet suspension (thromboxane synthetase). It counts as cell-based. The following applies: human platelets, arachidonic acid 5 μg/ml, 37° C., read-out: IC50, inhibition of the production of TXB2. How it is done: The platelets are incubated with arachidonic acid (5 μg/ml) in the presence of increasing doses of test products (10^-6l M to 5×10^-5 M). Platelets stimulated by arachidonic acid (AA) manufacture a large amount of thromboxane A2 (TXA2), which can be measured radioimmunologically in the form of a stable metabolite TXB2.
The assay of the amount of TXB2 in the medium is performed after a 1- to 15- minute incubation at 37° C., the measurements being made in comparison with a control suspension which has not been incubated with the test products.
Results: These are expressed as IC50, that is to say as the concentration of the test product which permits 50% inhibition of the production of TXB2.

In another data set the test system is 5-lipoxygenase. Description: Production of LTB4 and 5-HETE by human leukocytes incubated with arachidonic acid. The format is cell-based. As to conditions: ionophore A 23187 5 μM, arachidonic acid 10 μg/ml. The procedure: Human polymorphonuclear leukocytes suspended with arachidonic acid and stimulated by calcium ionophore produce leukotrienes B4 (LTB4).
The test consists in incubating fresh human leukocytes with arachidonic acid at a dose of 10 μg/ml to which a tracer dose of tritium-labelled arachidonic acid has been added. The leukocytes are stimulated with calcium ionophore A 23187 (Calbiochem, 5 μM) and the amount of 5-hydroxyeicosatetraenoic acid (5-HETE) and LTB4 produced is then assayed by HPLC.
5-HETE is the metabolite produced from arachidonic acid by 5-lipoxygenase, and from which LTB4 is produced by the action of an isomerase.
The results are expressed as an integration of the surface of the peak obtained in HPLC by comparison with that obtained with control leukocytes which have not been incubated with the test products.
The results in brackets are expressed as a percentage inhibition of the production of 5-HETE and LTB4.

The subject of data set [10] is thromboxane synthetase. In words: TXB2 production in human glomeruli (renal preparation model). It counts as cell-based. As to conditions: arachidonic acid 5 ug/ml. How it is done:
as §8, §9

As a reminder, the LD50 is the dose expected to kill half of the subjects tested. On to `O=C(c1ccccc1)c1ccccc1S(=O)(=O)NCCN1CCOCC1` [Compound 1341], for which the “histological study of the granuloma” value in [1] (both doses (50 and 100 mg/kg) oral, 8 days, Table XI) was “Inflammatory reaction distinctly attenuated”. Moreover, the LD50 at 336 h in “Oral LD50 in mice” came out at 250 mg/kg.

One may read the inhibition as the share of the control response that was lost under treatment. With `O=C(O)CCCCCCCCCCNS(=O)(=O)c1ccc(Cl)c(C(=O)c2ccc(Cl)cc2Cl)c1` [Compound 1763], the “histological study of the granuloma (inflammatory connective / granulation tissue)” value in data set [1] is “Peripheral shell of low density”. For the same molecule, the change in vivo at 25 mg/kg was 40% in [2]; -30% in [4]; -38 ± 5% in data set [5]; -15% in [6]; -35 ± 5% in data set [7]. Also, the change in vivo at 50 mg/kg in [2] is 42%; in [4], -35%; in data set [5] it was -40 ± 5%; in data set [6], -20%; in data set [7] it was -45 ± 5%. In addition, the change in vivo at 100 mg/kg in data set [2] is 45%; in data set [4], -45%; in [5], -48 ± 5%; in [6], -45%; in data set [7], -50 ± 5%. For the same molecule, the inhibition at 40 µM in data set [3] amounted to 100%. In addition, the ED50 in data set [5] and in data set [7] was 100 mg/kg each time.

`O=C(O)CCCCCCCCCCCNS(=O)(=O)c1ccc(Cl)c(C(=O)c2ccc(Cl)cc2Cl)c1` [Compound 1764]: the “histological study of the granuloma (inflammatory connective / granulation tissue)” value in data set [1] was “Peripheral shell of low density; also recorded: lightly inflammatory”. For the same molecule, the change in vivo at 25 mg/kg in data set [2] is 50%; in data set [4], -45%; in data set [5], -45 ± 5%; in data set [6], -45%; in [7] it was -45 ± 5%. In addition, the change in vivo at 50 mg/kg in [2] was 55%; in [4], -48%; in [5] it was -52 ± 5%; in [6] it was -50%; in [7], -55 ± 5%. In addition, the change in vivo at 100 mg/kg was 58% in data set [2]; -52% in data set [4]; -58 ± 5% in data set [5]; -55% in [6]; -60 ± 5% in data set [7]. For the same molecule, the ED50 in [2] (po, analgesia, read-out: 50% active dose) was determined as 25 mg/kg; in data set [5] it was 50 mg/kg; in data set [7], 50 mg/kg. Also, in data set [3], the inhibition at 40 µM was found to be 100%.

By IC50 is commonly meant the concentration at which inhibition is half-maximal. As to `O=C(O)CCCCCCCCCCCNS(=O)(=O)c1ccc(Cl)c(C(=O)c2cccs2)c1` [Compound 1813], the IC50 is above 50 µM in the data set on prostacyclin synthetase, 1 µM in data set [8], 11 µM with thromboxane synthetase [9] and 2 µM in the data set on thromboxane synthetase [10]. Moreover, the “5-HETE, integration of the surface of the HPLC peak” value in the data set on 5-lipoxygenase was found to be 181.
